What was measured:
MCF7 = experiment: Antiproliferative activity against human MCF7 cells assessed as inhibition of cell growth incubated for 72 hrs by MTT assay; format: functional, cell-based; conditions: MCF7, 72 h
[1] = molecular target: T1, Ubiquitin carboxyl-terminal hydrolase 2 (Homo sapiens, UniProt O75604); experiment: Inhibition of USP2 (267 to 599 residues) (unknown origin) expressed in Escherichia coli BL21 (DE3) cells using ubiquitin-rhodamine-110 as substrate preincubated with compound for 30 mins followed by substrate addition measured after 30 mins by fluorometric assay
T1 sequence (O75604 whole entry): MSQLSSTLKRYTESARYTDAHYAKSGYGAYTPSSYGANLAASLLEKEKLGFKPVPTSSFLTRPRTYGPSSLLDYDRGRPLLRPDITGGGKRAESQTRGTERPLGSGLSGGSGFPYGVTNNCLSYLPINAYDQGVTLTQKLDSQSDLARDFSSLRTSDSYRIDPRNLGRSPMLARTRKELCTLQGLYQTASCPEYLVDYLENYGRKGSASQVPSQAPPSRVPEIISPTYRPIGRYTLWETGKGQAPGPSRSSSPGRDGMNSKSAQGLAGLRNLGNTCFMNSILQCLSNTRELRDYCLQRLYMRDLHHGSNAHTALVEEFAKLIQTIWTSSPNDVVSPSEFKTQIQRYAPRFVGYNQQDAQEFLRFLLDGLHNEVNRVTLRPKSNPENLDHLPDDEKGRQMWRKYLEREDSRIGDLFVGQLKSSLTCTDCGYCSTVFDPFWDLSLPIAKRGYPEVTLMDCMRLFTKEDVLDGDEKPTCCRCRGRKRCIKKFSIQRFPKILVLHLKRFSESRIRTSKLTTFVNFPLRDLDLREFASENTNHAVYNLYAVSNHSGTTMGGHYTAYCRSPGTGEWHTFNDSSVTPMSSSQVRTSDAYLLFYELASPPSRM

in vitro [2] = conditions: mouse, plasma
Description: Stability in mouse plasma assessed as compound remaining measured after 30 mins

[3] = molecular target: T2, Ubiquitin carboxyl-terminal hydrolase 8 (Homo sapiens, UniProt P40818); experiment: Inhibition of N-terminal His6 tagged USP8 (734 to 1110 residues) (unknown origin) expressed in Escherichia coli BL21 (DE3) cells using ubiquitin-rhodamine-110 as substrate preincubated with compound for 30 mins followed by substrate addition measured after 30 mins by fluorometric assay
T2 sequence (P40818 whole entry): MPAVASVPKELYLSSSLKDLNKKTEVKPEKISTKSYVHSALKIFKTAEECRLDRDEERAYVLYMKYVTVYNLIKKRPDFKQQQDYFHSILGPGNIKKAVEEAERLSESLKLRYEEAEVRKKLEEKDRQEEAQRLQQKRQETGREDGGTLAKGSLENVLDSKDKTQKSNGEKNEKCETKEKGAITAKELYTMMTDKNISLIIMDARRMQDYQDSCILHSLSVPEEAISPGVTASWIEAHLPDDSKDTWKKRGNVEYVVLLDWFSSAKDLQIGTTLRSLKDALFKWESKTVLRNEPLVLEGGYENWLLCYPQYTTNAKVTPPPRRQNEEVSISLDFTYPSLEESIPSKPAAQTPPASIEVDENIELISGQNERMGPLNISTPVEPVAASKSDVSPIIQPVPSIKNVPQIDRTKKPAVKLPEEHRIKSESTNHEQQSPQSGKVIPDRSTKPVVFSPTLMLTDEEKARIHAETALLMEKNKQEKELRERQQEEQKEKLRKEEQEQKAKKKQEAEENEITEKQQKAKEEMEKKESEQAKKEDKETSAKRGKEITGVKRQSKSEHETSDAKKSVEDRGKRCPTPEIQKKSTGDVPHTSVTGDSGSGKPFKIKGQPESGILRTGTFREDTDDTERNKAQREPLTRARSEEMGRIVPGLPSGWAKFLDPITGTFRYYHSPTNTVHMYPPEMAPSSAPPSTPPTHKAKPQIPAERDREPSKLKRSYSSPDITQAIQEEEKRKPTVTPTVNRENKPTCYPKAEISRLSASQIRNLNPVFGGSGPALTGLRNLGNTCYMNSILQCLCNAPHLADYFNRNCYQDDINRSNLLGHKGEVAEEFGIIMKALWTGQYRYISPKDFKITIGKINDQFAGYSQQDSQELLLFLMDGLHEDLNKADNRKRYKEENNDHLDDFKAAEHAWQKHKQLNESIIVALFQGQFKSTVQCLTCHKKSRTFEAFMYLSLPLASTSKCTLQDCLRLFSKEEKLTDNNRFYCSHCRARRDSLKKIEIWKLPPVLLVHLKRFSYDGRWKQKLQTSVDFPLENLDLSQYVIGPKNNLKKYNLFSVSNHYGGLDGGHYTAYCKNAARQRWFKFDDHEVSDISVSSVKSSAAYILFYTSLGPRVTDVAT

in vitro [4] = conditions: human, microsomes
Description: Stability in human microsomes assessed as compound remaining measured after 30 mins

[5] = Cytotoxicity against human MCF-10A cells assessed as inhibition of cell growth incubated for 72 hrs by MTT assay; format: toxicity, cell-based
in vitro [6] = conditions: mouse, microsomes
Description: Stability in mouse microsomes assessed as compound remaining measured after 30 mins

[7] = molecular target: T1, Ubiquitin carboxyl-terminal hydrolase 2; experiment: Inhibition of USP2 (unknown origin) using Di-Ub IQF K48-4 as substrate preincubated for 10 mins followed by substrate addition by high-throughput assay
[8] = molecular target: T2, Ubiquitin carboxyl-terminal hydrolase 8; experiment: Inhibition of USP8 (unknown origin) using Di-Ub IQF K48-02 as substrate preincubated for 30 mins followed by substrate addition by high-throughput assay

Row | SMILES | IC50 (MCF7) [µM] | IC50 [1] [µM] | remaining at 0.5 h (in vitro [2]) [%] | IC50 [3] [µM] | remaining at 0.5 h (in vitro [4]) [%] | IC50 at 72 h [5] [µM] | remaining at 0.5 h (in vitro [6]) [%] | IC50 [7] [µM] | IC50 [8] [µM]
1 | Cc1ccc(S(=O)(=O)Nc2cc(C(F)(F)F)ccc2C(=O)Nc2nc(-c3ccccc3)cs2)cc1 | 9.3 | 3.6 | > 90 | 4.7 | > 90 | 14.5 | 72 |  | 
2 | CCCCS(=O)(=O)Cc1nc2c(nc1CS(=O)(=O)CCCC)C(=O)c1ccccc1C2=O |  |  |  |  |  |  |  | < 0.8 | < 0.1
